The conditions of series [1]: in vivo; cited from earlier work.
For series [2], the system named is mild-to-moderate Alzheimer's disease patients. The following applies: cited from earlier work.
In the next series the test system is men with prostate cancer. Particulars: daily injections for up to two years, Lupron Depot package insert; cited from earlier work.
Series [3] concerns women diagnosed with mild-to-moderate Alzheimer's Disease. Briefly: ADAS-Cog test, 48-week double-blind placebo-controlled clinical trial. The class given is in vivo, human. The protocol:
During 2004-2005, a 48-week, double-blind placebo-controlled dose ranging study was conducted in 108 women diagnosed with mild-to-moderate Alzheimer's Disease. The study inclusion criteria included a requirement that each patient either (a) is taking a cholinesterase inhibitor, began taking it at least 90 days prior to the trial and is likely to continue taking it at the same dosage level throughout the trial; or (b) has never taken a cholinesterase inhibitor or has stopped taking at least 90 days prior to the trial and is likely to remain off cholinesterase inhibitors throughout the trial. The patients in the subgroup taking cholinesterase inhibitors were in turn divided into two groups for analysis purposes:
Group 1 patients were administered an injectable 22.5 mg formulation of leuprolide acetate in combination with a stable dose of acetylcholinesterase inhibitors (AChEI). At the completion of the study, Group 1 included 24 subjects. Group 2 patients were administered a placebo injection (saline) in combination with a stable dose of AChEI. […]
During the Phase II study, the administrations of leuprolide acetate and placebo occurred at weeks 0, 12, 24, 36, and 48 of the study, whereas doses of AChE inhibitors were taken as prescribed by a physician (determined as the proper beneficial level) to each specific patient before enrollment. […]

The subject of series [4] is glioblastoma cell lines (LN229, U87, U118MG). As to the kind of experiment: Cell growth assay (WST-8, 96 well), glioblastoma cell lines. The following applies: 10^-5 M (12.25 μg/ml) vs 0 M control, WST-8, optical density 450 nm, FIG. 5. It counts as cell-based. The protocol: (§1) For cell growth assays in a 96 well format, a specific number of cells were plated (about 1000 cells for each line). All cell lines were plated in their respective growth media (supplemented with either 1% regular fetal bovine serum, 1% charcoal/dextran-stripped fetal bovine serum or 0.25% Albumax™ (Invitrogen Corp., Grand Island N.Y.)) and allowed to settle for 24 hours. Leuprolide treatments were commenced […]. A 10 mM (12.25 mg/ml) solution of leuprolide acetate salt in phosphate buffered saline was prepared and diluted appropriately to obtain the desired final concentrations. Treatment concentrations were 0 M (control) and 10^−5 M (shown as 1.00E-5, 12.25 μg/ml). The number of cells in each group was measured by incubating cells with WST-8 (2-(2-methoxy-4-nitrophenyl)-3-(4-nitrophenyl)-5-(2,4-disulfophenyl)-2H-tetrazolium, monosodium salt) which produces a water soluble formazan dye that was detected by measuring optical density (at 450 nm) using a μQuant™ Universal Microplate Spectrophotometer (Bio-Tek® Instruments, Inc., Winooski, Vt.).
In general terms: Formazan colour is commonly taken as a measure of viable cells.

The subject of another series is testosterone suppression. Particulars: Fowler et al. 2000; cited from earlier work.
Series [5] has as its system neuroblastoma cell lines (DAOY, SKNMC, CCF-SttG1). As to the kind of experiment: Cell growth assay (WST-8, 96 well), neuroblastoma cell lines. The following applies: 10^-5 M (12.25 μg/ml) vs 0 M control, WST-8, optical density 450 nm, FIG. 5. The class given is cell-based. Here is the method:
as §1

Molecules are shown by their SMILES. Counter-ions that a name gives are not always drawn.

Regarding `CC12CC3CC(C)(C1)CC(N)(C3)C2` [Memantine], in series [1], the “dose excreted in the urine unchanged” value was “up to 82%”.
`COc1cc2c(cc1OC)C(=O)C(CC1CCN(Cc3ccccc3)CC1)C2` (stereo not drawn) [donepezil, Donepezil]: the “decline on ADAS-cog after 52 weeks of treatment” value in series [2] (Wilcock et al., one year trial comparing two AChEIs) was 3.43±0.8 points.
As for `CCNC(=O)[C@@H]1CCCN1C(=O)[C@H](CCCNC(=N)N)NC(=O)[C@H](CC(C)C)NC(=O)[C@@H](CC(C)C)NC(=O)[C@H](Cc1ccc(O)cc1)NC(=O)[C@H](CO)NC(=O)[C@H](Cc1c[nH]c2ccccc12)NC(=O)[C@H](Cc1c[nH]cn1)NC(=O)[C@@H]1CCC(=O)N1` [leuprolide acetate, 5-oxo-L-prolyl-L-histidyl-L-tryptophyl-L-seryl-L-tyrosyl-D-leucyl-L-leucyl-L-arginyl-N-ethyl-L-prolinamide acetate (salt)], in the series on men with prostate cancer, the “adverse effects of 20 mg per day versus 1 mg per day” value was “did not result in any adverse effects different from what was seen with the 1 mg dose”. Besides, the “cognitive decline as percent of expected no-treatment decline” value in series [3] (100% decline = 5.6 ADAS-cog points in a year (literature placebo)) is recorded as 84%. The “decline on ADAS-cog (mean change from baseline)” value in series [3] (females, over 48 weeks, stable dose of AChEI, leuprolide acetate (Lupron Depot) 22.5 mg at 12-week intervals where given) is given as 4.68 points. Also, the “cell growth of glioblastoma cell lines” value in series [4] is “inhibits cell growth”; in series [4] (listed as Leuprolide), “very effective at slowing the growth”. In the series with testosterone suppression, the “serum concentration considered adequate for testosterone suppression” value is recorded as “less than 1 ng/ml”. The “cell growth of neuroblastoma cell lines” value is “inhibits cell growth” in series [5] and “very effective at slowing the growth” in series [5] (listed as Leuprolide).
Consider `NCCCS(=O)(=O)O` [tramiprosate], for which, in series [2] (ongoing trial, overall decline, mild patients), the “overall 18 month decline on ADAS-cog, mild patients” value is reported as 5.5 points. Also, the “overall 18 month decline on ADAS-cog, moderate patients” value in series [2] (ongoing trial, overall decline, moderate patients) is 6.3 points.

The values above are taken from US20110195898A1, “TREATMENT OF ALZHEIMER'S DISEASE AND MILD COGNITIVE IMPAIRMENT USING GNRH-I ANALOGS AND ONE OR MORE OF ACETYLCHOLINESTERASE INHIBITORS AND NMDA RECEPTOR ANTAGONISTS” (Voyager Pharmaceutical Corporation, priority 2004, published 2011).
